Publication PMC12586182 (Frontiers in Oncology, 2025)

Assays:
Test in all cases: Kinase panel profiling at 1 µmol/L (mobility shift assay, Carna)
Format in all cases: biochemical
Conditions in all cases: 1 µmol/L of BTK inhibitor
AKT1 = target: T1, AKT1 (Homo sapiens, UniProt P31749)
T1 construct: purchased Carna Biosciences

GSK3β = target: T2, GSK3β (Homo sapiens, UniProt P49841)
T2 construct: purchased Carna Biosciences

ABL = target: T3, ABL (Homo sapiens, UniProt P00519)
T3 construct: purchased Carna Biosciences

SYK = target: T4, SYK (Homo sapiens, UniProt P43405)
T4 construct: purchased Carna Biosciences

MNK2 = target: T5, MNK2 (Homo sapiens, UniProt Q9HBH9)
T5 construct: purchased Carna Biosciences

JAK3 = target: T6, JAK3 (Homo sapiens, UniProt P52333)
T6 construct: purchased Carna Biosciences
T6 sequence (P52333 1-1124): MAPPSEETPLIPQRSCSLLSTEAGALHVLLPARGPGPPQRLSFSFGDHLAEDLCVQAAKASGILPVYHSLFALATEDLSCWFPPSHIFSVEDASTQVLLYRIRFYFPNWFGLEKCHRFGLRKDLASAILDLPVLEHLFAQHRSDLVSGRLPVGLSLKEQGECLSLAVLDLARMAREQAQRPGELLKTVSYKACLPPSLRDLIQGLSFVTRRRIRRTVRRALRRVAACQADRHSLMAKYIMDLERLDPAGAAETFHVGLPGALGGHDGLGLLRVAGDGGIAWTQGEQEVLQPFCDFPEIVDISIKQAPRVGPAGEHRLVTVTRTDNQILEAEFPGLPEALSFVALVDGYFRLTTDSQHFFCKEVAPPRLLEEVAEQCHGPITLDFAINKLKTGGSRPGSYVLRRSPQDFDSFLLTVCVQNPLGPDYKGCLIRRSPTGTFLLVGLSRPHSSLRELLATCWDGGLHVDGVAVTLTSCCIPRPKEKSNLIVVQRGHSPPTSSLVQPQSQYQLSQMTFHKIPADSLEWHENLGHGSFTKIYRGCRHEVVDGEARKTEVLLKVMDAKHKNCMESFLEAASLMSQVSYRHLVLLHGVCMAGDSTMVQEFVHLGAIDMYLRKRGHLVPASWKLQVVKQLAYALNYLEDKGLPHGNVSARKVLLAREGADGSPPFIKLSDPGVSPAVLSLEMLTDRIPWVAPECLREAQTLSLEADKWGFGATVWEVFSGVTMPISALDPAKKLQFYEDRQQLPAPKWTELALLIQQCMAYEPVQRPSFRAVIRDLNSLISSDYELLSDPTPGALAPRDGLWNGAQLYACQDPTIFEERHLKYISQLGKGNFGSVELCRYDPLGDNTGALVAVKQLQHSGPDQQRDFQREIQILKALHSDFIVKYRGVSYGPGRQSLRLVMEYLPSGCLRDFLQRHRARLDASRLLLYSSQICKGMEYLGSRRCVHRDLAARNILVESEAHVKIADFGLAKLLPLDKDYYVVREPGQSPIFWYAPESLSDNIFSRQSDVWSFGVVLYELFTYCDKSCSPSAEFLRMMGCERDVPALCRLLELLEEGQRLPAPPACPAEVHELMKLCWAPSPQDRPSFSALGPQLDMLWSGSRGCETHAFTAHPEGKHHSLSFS

MINK = target: T7, MINK (Homo sapiens, UniProt Q8N4C8)
T7 construct: purchased Carna Biosciences

PKCη = target: T8, PKCη (Homo sapiens, UniProt P24723)
T8 construct: purchased Carna Biosciences

SLK = target: T9, SLK (Homo sapiens, UniProt Q9H2G2)
T9 construct: purchased Carna Biosciences

TAOK2 = target: T10, TAOK2 (Homo sapiens, UniProt Q9UL54)
T10 construct: purchased Carna Biosciences
T10 sequence (Q9UL54 1-1235): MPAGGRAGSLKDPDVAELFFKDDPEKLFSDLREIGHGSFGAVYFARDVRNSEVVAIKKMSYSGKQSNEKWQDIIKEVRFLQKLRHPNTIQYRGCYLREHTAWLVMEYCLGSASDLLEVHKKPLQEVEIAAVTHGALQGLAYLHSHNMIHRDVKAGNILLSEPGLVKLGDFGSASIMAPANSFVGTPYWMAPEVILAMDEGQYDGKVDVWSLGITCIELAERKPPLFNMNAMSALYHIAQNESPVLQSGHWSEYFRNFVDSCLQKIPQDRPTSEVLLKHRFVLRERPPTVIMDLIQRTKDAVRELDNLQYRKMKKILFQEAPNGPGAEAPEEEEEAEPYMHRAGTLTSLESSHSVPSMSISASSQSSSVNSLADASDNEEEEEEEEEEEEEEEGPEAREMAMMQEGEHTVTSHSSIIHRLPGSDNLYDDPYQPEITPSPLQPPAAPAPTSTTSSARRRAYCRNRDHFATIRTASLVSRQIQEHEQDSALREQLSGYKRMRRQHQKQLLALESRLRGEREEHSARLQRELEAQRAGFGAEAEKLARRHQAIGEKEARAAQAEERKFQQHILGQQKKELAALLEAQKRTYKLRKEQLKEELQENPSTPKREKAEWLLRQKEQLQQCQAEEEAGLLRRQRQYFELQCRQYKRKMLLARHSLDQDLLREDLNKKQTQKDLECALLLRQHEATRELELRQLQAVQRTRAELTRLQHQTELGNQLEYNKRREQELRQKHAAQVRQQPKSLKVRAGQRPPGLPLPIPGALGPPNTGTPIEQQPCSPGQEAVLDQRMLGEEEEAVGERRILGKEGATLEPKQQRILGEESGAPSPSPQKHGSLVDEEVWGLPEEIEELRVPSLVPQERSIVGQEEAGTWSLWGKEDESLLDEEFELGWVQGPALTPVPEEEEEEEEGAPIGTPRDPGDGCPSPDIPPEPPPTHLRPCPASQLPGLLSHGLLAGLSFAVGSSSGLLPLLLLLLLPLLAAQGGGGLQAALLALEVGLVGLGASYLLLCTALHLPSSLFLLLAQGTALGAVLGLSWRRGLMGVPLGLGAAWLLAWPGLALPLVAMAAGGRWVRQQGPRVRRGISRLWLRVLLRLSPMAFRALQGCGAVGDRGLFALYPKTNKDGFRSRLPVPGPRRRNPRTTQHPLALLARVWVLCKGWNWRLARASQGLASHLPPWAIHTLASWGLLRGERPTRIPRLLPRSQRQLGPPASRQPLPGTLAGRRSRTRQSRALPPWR

MAPKAPK3 = target: T11, MAPKAPK3 (Homo sapiens, UniProt Q16644)
T11 construct: purchased Carna Biosciences

CK1α = target: T12, CK1α (Homo sapiens, UniProt P48729)
T12 construct: purchased Carna Biosciences
T12 sequence (P48729 whole entry): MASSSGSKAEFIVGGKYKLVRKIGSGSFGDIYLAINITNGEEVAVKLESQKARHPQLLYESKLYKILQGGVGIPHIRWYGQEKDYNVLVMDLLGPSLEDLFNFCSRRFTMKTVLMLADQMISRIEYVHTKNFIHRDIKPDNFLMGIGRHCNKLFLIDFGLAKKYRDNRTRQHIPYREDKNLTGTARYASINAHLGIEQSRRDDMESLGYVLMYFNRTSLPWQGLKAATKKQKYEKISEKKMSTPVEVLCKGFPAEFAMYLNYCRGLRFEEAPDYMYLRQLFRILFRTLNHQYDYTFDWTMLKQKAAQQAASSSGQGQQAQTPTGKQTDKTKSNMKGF

T3 sequence (P00519 whole entry): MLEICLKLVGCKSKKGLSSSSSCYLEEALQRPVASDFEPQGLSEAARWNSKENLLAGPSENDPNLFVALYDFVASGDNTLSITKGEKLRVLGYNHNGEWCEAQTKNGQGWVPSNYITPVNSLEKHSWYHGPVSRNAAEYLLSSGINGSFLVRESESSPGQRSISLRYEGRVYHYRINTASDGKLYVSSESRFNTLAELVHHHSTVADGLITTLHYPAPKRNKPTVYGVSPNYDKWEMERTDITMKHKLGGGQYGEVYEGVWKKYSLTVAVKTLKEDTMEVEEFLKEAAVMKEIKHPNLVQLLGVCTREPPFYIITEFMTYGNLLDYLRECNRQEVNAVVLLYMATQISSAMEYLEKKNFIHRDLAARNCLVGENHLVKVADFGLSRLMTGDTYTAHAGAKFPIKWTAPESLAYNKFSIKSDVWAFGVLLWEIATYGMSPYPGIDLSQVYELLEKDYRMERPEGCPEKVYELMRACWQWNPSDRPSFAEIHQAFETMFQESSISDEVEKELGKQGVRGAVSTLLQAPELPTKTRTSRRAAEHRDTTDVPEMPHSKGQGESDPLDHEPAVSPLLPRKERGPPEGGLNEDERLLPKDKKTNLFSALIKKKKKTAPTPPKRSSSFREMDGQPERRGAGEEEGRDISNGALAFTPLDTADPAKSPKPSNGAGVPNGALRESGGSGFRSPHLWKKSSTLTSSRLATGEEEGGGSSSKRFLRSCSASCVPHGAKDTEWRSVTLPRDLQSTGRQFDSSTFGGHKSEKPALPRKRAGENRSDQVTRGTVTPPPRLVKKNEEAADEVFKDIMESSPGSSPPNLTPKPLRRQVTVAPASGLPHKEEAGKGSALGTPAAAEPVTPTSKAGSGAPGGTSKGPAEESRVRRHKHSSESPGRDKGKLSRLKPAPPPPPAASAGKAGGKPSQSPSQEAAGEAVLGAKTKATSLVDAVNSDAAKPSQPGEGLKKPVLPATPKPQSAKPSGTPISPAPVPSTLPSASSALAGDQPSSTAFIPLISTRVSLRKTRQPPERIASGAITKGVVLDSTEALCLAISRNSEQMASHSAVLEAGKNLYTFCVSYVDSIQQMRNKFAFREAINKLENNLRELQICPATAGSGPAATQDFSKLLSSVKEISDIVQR
T1 sequence (P31749 whole entry): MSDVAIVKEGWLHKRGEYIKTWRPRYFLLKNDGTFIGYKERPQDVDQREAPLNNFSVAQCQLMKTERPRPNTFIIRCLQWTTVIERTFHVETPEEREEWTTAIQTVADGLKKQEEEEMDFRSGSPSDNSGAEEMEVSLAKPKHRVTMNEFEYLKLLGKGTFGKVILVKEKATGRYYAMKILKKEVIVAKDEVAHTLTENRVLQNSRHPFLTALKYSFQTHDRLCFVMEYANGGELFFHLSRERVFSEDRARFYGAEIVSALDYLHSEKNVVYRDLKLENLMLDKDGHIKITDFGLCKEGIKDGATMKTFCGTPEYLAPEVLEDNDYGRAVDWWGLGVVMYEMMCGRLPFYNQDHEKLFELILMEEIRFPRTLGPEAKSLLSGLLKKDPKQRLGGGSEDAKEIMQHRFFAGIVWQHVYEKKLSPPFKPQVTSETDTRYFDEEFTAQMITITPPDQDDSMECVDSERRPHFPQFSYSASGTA
T7 sequence (Q8N4C8 whole entry): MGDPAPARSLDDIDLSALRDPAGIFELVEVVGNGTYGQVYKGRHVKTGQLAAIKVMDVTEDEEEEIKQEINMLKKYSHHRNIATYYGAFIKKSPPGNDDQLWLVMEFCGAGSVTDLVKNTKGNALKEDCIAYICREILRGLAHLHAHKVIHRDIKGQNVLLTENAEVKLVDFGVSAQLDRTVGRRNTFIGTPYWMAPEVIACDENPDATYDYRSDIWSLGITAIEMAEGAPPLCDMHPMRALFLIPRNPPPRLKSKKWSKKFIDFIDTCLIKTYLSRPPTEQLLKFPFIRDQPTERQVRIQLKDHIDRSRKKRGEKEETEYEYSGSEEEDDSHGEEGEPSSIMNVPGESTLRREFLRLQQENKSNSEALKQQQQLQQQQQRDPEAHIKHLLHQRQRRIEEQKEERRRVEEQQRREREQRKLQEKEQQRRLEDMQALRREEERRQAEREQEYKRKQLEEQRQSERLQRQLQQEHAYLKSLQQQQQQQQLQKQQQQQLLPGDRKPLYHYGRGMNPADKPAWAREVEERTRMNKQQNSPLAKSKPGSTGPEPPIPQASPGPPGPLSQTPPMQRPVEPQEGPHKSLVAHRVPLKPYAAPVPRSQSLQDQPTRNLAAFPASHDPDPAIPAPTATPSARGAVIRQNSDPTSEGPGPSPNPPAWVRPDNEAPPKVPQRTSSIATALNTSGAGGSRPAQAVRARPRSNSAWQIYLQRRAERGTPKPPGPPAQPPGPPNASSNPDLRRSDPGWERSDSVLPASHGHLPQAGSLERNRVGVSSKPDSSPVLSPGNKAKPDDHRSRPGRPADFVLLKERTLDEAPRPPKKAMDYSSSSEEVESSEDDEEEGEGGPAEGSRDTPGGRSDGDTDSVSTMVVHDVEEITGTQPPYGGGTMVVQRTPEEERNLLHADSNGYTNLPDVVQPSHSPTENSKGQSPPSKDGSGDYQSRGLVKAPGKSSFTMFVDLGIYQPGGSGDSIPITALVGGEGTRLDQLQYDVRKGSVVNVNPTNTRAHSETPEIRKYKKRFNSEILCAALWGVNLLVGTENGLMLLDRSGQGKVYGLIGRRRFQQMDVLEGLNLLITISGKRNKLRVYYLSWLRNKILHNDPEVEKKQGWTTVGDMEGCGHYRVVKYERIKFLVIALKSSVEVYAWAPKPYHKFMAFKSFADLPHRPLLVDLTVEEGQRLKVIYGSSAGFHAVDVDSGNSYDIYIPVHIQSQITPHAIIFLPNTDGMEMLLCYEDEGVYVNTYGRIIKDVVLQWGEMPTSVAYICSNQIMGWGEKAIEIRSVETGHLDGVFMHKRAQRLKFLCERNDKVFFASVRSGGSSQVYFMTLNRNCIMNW
T5 sequence (Q9HBH9 whole entry): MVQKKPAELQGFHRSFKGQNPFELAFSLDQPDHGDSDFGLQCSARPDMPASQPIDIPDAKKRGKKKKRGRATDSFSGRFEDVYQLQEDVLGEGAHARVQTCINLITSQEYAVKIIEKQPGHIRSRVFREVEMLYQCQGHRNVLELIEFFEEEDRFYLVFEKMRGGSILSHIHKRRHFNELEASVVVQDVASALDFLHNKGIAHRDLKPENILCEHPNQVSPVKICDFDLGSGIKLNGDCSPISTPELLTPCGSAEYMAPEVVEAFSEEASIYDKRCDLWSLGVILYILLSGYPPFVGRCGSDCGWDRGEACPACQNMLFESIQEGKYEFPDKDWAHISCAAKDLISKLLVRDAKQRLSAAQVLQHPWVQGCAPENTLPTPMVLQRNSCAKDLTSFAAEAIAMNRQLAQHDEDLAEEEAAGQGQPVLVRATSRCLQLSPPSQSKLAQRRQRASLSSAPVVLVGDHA
T2 sequence (P49841 whole entry): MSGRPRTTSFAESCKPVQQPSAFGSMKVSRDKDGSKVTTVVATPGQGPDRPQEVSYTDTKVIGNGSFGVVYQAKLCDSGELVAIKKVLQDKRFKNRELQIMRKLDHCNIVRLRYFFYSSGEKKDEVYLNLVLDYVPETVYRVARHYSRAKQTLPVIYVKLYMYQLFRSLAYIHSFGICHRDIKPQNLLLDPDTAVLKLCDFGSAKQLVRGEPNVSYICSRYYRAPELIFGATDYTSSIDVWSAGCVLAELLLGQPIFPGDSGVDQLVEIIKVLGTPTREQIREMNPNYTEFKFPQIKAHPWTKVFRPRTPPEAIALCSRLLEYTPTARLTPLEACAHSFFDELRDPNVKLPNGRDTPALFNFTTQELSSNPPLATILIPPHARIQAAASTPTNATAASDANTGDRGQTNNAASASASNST
T8 sequence (P24723 whole entry): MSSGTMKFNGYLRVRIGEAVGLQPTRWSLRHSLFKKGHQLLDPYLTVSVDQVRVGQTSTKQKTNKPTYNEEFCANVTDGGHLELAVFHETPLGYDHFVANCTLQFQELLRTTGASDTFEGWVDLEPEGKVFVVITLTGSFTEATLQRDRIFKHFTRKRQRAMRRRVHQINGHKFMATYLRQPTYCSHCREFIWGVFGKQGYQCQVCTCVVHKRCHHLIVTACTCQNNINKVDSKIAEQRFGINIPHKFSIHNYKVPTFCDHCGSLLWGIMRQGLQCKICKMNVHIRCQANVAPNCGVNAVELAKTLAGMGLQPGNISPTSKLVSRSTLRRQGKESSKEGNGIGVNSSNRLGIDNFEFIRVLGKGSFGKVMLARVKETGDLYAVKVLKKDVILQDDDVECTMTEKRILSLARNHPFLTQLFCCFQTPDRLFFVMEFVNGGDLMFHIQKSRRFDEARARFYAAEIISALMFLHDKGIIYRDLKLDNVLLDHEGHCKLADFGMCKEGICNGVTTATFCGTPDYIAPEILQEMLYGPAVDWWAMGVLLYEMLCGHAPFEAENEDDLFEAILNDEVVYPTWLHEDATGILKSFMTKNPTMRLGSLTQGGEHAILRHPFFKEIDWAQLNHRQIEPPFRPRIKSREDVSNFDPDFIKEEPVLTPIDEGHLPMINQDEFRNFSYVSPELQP

With `CC#CC(=O)N1CCC[C@H]1c1nc(-c2ccc(C(=O)Nc3ccccn3)cc2)c2c(N)nccn12` [acalabrutinib] the “Percentage inhibition of kinase enzyme activity” value (shortened to “Percentage inhibition”) (AKT1) was -6.23%, the “Percentage inhibition” value (GSK3β) was -2.39% and the “Percentage inhibition” value (ABL) was -2.81%. For the same compound, the “Percentage inhibition” value (SYK) was -19.36%, the “Percentage inhibition” value (MNK2) was 12.37% and the “Percentage inhibition” value (JAK3) was -1.00%. For the same compound, the “Percentage inhibition” value (MINK) was -1.13%, the “Percentage inhibition” value (PKCη) was -3.18% and the “Percentage inhibition” value (SLK) was 1.61%. For the same compound, the “Percentage inhibition” value (TAOK2) was 5.31%, the “Percentage inhibition” value (MAPKAPK3) was -11.15% and the “Percentage inhibition” value (CK1α) was 10.47%.
`COc1ccc(F)cc1C(=O)NCc1ccc(-c2nn([C@@H](C)C(F)(F)F)c(N)c2C(N)=O)cc1` [pirtobrutinib] was tested, and the “Percentage inhibition” value (AKT1) was -12.80%, the “Percentage inhibition” value (GSK3β) was -23.01% and the “Percentage inhibition” value (ABL) was 2.26%. The “Percentage inhibition” value (SYK) was -13.08%, the “Percentage inhibition” value (MNK2) was 7.34% and the “Percentage inhibition” value (JAK3) was -1.25%. The “Percentage inhibition” value (MINK) was -0.79%, the “Percentage inhibition” value (PKCη) was 3.32% and the “Percentage inhibition” value (SLK) was -0.40%. For the same compound, the “Percentage inhibition” value (TAOK2) was 1.74%, the “Percentage inhibition” value (MAPKAPK3) was -18.63% and the “Percentage inhibition” value (CK1α) was 9.63%.
For `C=CC(=O)N1CCC[C@@H](n2nc(-c3ccc(Oc4ccccc4)cc3)c3c(N)ncnc32)C1` [ibrutinib], the “Percentage inhibition” value (AKT1) was -9.41%, the “Percentage inhibition” value (GSK3β) was -4.00% and the “Percentage inhibition” value (ABL) was 7.80%. For the same compound, the “Percentage inhibition” value (SYK) was -19.83%, the “Percentage inhibition” value (MNK2) was 19.75% and the “Percentage inhibition” value (JAK3) was 90.92%. The “Percentage inhibition” value (MINK) was -6.41%, the “Percentage inhibition” value (PKCη) was 3.27% and the “Percentage inhibition” value (SLK) was 12.11%. The “Percentage inhibition” value (TAOK2) was 5.25%, the “Percentage inhibition” value (MAPKAPK3) was -6.50% and the “Percentage inhibition” value (CK1α) was -1.93%.
`O=C(c1ccc(Oc2ccccc2)cc1Cl)c1c[nH]c2ncnc(N[C@@H]3CC[C@@H](CO)OC3)c12` [nemtabrutinib] was tested, and the “Percentage inhibition” value (AKT1) was -8.43%, the “Percentage inhibition” value (GSK3β) was -7.92% and the “Percentage inhibition” value (ABL) was 56.26%. The “Percentage inhibition” value (SYK) was 3.99%, the “Percentage inhibition” value (MNK2) was 56.12% and the “Percentage inhibition” value (JAK3) was 97.48%. For the same compound, the “Percentage inhibition” value (MINK) was 46.67%, the “Percentage inhibition” value (PKCη) was 5.25% and the “Percentage inhibition” value (SLK) was 52.74%. For the same compound, the “Percentage inhibition” value (TAOK2) was 41.31%, the “Percentage inhibition” value (MAPKAPK3) was -15.88% and the “Percentage inhibition” value (CK1α) was 33.46%.
`C=CC(=O)N1CCC([C@@H]2CCNc3c(C(N)=O)c(-c4ccc(Oc5ccccc5)cc4)nn32)CC1` [zanubrutinib] was tested, and the “Percentage inhibition” value (JAK3) was 10.83% and the “Percentage inhibition” value (MAPKAPK3) was -12.22%.
